In paper PMC11284600, “Many human pharmaceuticals are weak inhibitors of the cytochrome P450 system in rainbow trout (Oncorhynchus mykiss) liver S9 fractions” (Frontiers in Toxicology, 2024) one finds LogKOW and fraction unbound data, which are given here for 5 compounds.

On the set-up of series [1]: method as in PubChem. The note with it: (e) empirical; ref PubChem; cited from earlier work.
The nature of series [2]: Unbound fraction in RT-S9 by rapid equilibrium dialysis. The format is in vitro ADME, rainbow trout (Oncorhynchus mykiss). To be noted: rainbow trout liver S9 fractions (RT-S9), 10 µM test substance, 1 mg/mL RT-S9, pH 7.8, 11°C, n = 3, read-out: Unbound fraction (fU,RT-S9). Here is the method:
The unbound (free) fractions of the test substances in RT-S9 (fU,RT-S9) were determined using rapid equilibrium dialysis assay (RED, Thermo Fisher Scientific), which exploits two-compartment inserts separated by a dialysis membrane with a molecular weight cut-off of 8,000 Da. In the RED assay, each test pharmaceutical (10 μM) was incubated in triplicate with RT-S9 (1 mg/mL) in 50 mM potassium phosphate buffer (pH 7.8) in a total volume of 300 µL on one side of the membrane (protein-containing chamber), and 350 μL of the plain phosphate buffer on the other side (protein-free chamber). To reach equilibrium, the samples were incubated on an orbital shaker (C25KC Incubator shaker, New Brunswick Scientific, 120 rpm) at 11°C for 4 h. Next, 50 µL aliquots were collected from both chambers separately and diluted by adding 50 µL of the plain buffer (to the protein-containing sample) or 50 μL of 1 mg/mL RT-S9 in the buffer (to the protein-free sample). Finally, the RT-S9 protein was precipitated by the addition of acetonitrile (+200 μL) to both samples separately, followed by incubation on ice for 30 min and centrifugation (16100 g, 15 min). The test substance concentrations in the supernatants of both samples were determined using liquid chromatography. The instrumentation and the analytical methods used for chromatographic analyses are described in detail in the Supplementary Table S2. The unbound fractions of the test substances in RT-S9 (fU,RT-S9) were calculated according to Eq. 3: fU,RT−S9=1− PC−PF/PC (3) where [PC] and [PF] are the test substance concentrations in the samples collected from protein-containing and protein-free chambers, respectively. To account for the test substance’s binding to the RT-S9, the nominal IC50 values were corrected for unbound fraction (fU,RT-S9) according to Eq. 4: Unbound IC50=Nominal IC50×fU,RT−S9 (4)
For orientation: In equilibrium dialysis only unbound substance equilibrates across the membrane.

For orientation: fraction unbound means the share of the substance not bound to proteins or other matrix.

Structures can show the parent of a compound that is named as a salt. Where two headings read alike, the source gives them in different places.

`CC(C)c1c(C(=O)Nc2ccccc2)c(-c2ccccc2)c(-c2ccc(F)cc2)n1CC[C@@H](O)C[C@@H](O)CC(=O)O` [Atorvastatin, atorvastatin calcium trihydrate]: the LogKOW in series [1] is 6.36 (e). For `Clc1ccc2c(c1)CCc1cccnc1C2=C1CCNCC1` [Desloratadine, desloratadine], the fraction unbound at 4 h, 10 µM in series [2] was determined as 0.15 ± 0.03.

`CCN(CC)C(=S)SSC(=S)N(CC)CC` [Disulfiram, disulfiram]: the fraction unbound at 4 h, 10 µM in series [2] (rainbow trout (Oncorhynchus mykiss)) was over 0.9; in series [2], 0.91 ± 0.42. Besides, the LogKOW in series [1] was 3.88 (e).

For `Cc1ccccc1C(OCCN(C)C)c1ccccc1` (stereo not drawn) [Orphenadrine, orphenadrine citrate], the fraction unbound at 4 h, 10 µM in series [2] worked out at 0.27 ± 0.05. For the same compound, the LogKOW in series [1] was 3.77 (e). With `OCCOCCN1CCN(C2=Nc3ccccc3Sc3ccccc32)CC1` [Quetiapine, quetiapine hemihumarate], the fraction unbound at 4 h, 10 µM in series [2] is 0.24 ± 0.06. Moreover, the LogKOW in series [1] is recorded as 2.81 (e).
